Test results from PubChem BioAssay AID2060504 (Molecular Pharmacology Branch, DTP, NCI, 2025).

Test system: 636577-100-R-J1-PDC complex spheroid viability
Test: Anticancer human tumor 636577-100-R-J1-PDC patient-derived endometrial adenocarcinoma cell line growth inhibition [GQUAD]
Details: for IC50: curve of first compound; for viability, T/C: stronger effect = lower value
In short: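 Tumor cells were grown as complex spheroids with HUVEC endothelial cells and mesenchymal stem cells as stroma. G-quadruplex stabilizers were combined with targeted agents over half-log dilutions from near the clinical Cmax, or from 10 microM.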

[1] = second compound 0.0316 µM, first compound 0.0316 µM
[2] = second compound 0.0316 µM, first compound 0.1 µM
[3] = second compound 0.0316 µM, first compound 0.316 µM
[4] = second compound 0.0316 µM, first compound 1 µM
[5] = second compound 0.0316 µM, first compound 3.16 µM
[6] = second compound 0.0316 µM, first compound 10 µM
[7] = second compound 0.1 µM, first compound 0.0316 µM
[8] = second compound 0.1 µM, first compound 0.1 µM
[9] = second compound 0.1 µM, first compound 0.316 µM
[10] = second compound 0.1 µM, first compound 1 µM
[11] = second compound 0.1 µM, first compound 3.16 µM
[12] = second compound 0.1 µM, first compound 10 µM
[13] = second compound 0.316 µM, first compound 0.0316 µM
[14] = second compound 0.316 µM, first compound 0.1 µM
[15] = second compound 0.316 µM, first compound 0.316 µM
[16] = second compound 0.316 µM, first compound 1 µM
[17] = second compound 0.316 µM, first compound 3.16 µM
[18] = second compound 0.316 µM, first compound 10 µM
[19] = second compound 1 µM, first compound 0.0316 µM
[20] = second compound 1 µM, first compound 0.1 µM
[21] = second compound 1 µM, first compound 0.316 µM
[22] = second compound 1 µM, first compound 1 µM
[23] = second compound 1 µM, first compound 3.16 µM
[24] = second compound 1 µM, first compound 10 µM
[25] = second compound 3.16 µM, first compound 0.0316 µM
[26] = second compound 3.16 µM, first compound 0.1 µM
[27] = second compound 3.16 µM, first compound 0.316 µM
[28] = second compound 3.16 µM, first compound 1 µM
[29] = second compound 3.16 µM, first compound 3.16 µM
[30] = second compound 3.16 µM, first compound 10 µM
[31] = second compound 10 µM, first compound 0.0316 µM
[32] = second compound 10 µM, first compound 0.1 µM
[33] = second compound 10 µM, first compound 0.316 µM
[34] = second compound 10 µM, first compound 1 µM
[35] = second compound 10 µM, first compound 3.16 µM
[36] = second compound 10 µM, first compound 10 µM
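Also: viability read after seven days of drug exposure.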
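For viability, T/C in this document: luminescence signal used as a proxy for viable cells; 100% = DMSO vehicle control wells.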

Compound `C=CCn1c(=O)c2cnc(Nc3ccc(N4CCN(C)CC4)cc3)nc2n1-c1cccc(C(C)(C)O)n1` + Cc1cnc(CNC(=O)c2c(=O)c3ccc(N4CCCN(C)CC4)nc3n3c2sc2ccccc23)cn1 has an IC50 (second compound 0.0316 µM) of under 31.6 nM, an IC50 (second compound 0.1 µM) of under 31.6 nM and an IC50 (second compound 0.316 µM) of under 31.6 nM. The IC50 (second compound 1 µM) was under 31.6 nM, the IC50 (second compound 3.16 µM) was under 31.6 nM and the IC50 (second compound 10 µM) was under 31.6 nM. The viability, T/C [1] was 49.8%, the viability, T/C [2] was 40.3% and the viability, T/C [3] was 47.3%. For the same compound, the viability, T/C [4] was 28.2%, the viability, T/C [5] was 22.4% and the viability, T/C [6] was 12.1%. The viability, T/C [7] was 29.4%, the viability, T/C [8] was 29% and the viability, T/C [9] was 28.7%. It also gave a viability, T/C [10] of 22.3%, a viability, T/C [11] of 21.3% and a viability, T/C [12] of 14.2%. The viability, T/C [13] was 27.4%, the viability, T/C [14] was 26.2% and the viability, T/C [15] was 28.2%. It also gave a viability, T/C [16] of 24.2%, a viability, T/C [17] of 24.8% and a viability, T/C [18] of 15.1%. It also gave a viability, T/C [19] of 19.4%, a viability, T/C [20] of 19.5% and a viability, T/C [21] of 22.5%. For the same compound, the viability, T/C [22] was 24.5%, the viability, T/C [23] was 23.4% and the viability, T/C [24] was 14.3%. For the same compound, the viability, T/C [25] was 18.1%, the viability, T/C [26] was 22.3% and the viability, T/C [27] was 25.9%. It also gave a viability, T/C [28] of 23.7%, a viability, T/C [29] of 21.1% and a viability, T/C [30] of 18.4%. The viability, T/C [31] was 23%, the viability, T/C [32] was 22.2% and the viability, T/C [33] was 24.2%. For the same compound, the viability, T/C [34] was 19.1%, the viability, T/C [35] was 25.2% and the viability, T/C [36] was 23.1%.

`CC(C)(O)C1CCC(Nc2ccc3ncc(-c4cccc(C(F)(F)F)c4)n3n2)CC1` (stereo not drawn) + Cc1cnc(CNC(=O)c2c(=O)c3ccc(N4CCCN(C)CC4)nc3n3c2sc2ccccc23)cn1 gave an IC50 (second compound 0.0316 µM) of 358 nM, an IC50 (second compound 0.1 µM) of under 31.6 nM and an IC50 (second compound 0.316 µM) of under 31.6 nM. It also gave an IC50 (second compound 1 µM) of under 31.6 nM, an IC50 (second compound 3.16 µM) of under 31.6 nM and an IC50 (second compound 10 µM) of under 31.6 nM. It also gave a viability, T/C [1] of 52.8%, a viability, T/C [2] of 51.1% and a viability, T/C [3] of 51.6%. It also gave a viability, T/C [4] of 37.6%, a viability, T/C [5] of 22% and a viability, T/C [6] of 21.3%. For the same compound, the viability, T/C [7] was 28.9%, the viability, T/C [8] was 32.1% and the viability, T/C [9] was 32.7%. For the same compound, the viability, T/C [10] was 29.3%, the viability, T/C [11] was 16.6% and the viability, T/C [12] was 18.6%. The viability, T/C [13] was 25.3%, the viability, T/C [14] was 28.4% and the viability, T/C [15] was 27.2%. For the same compound, the viability, T/C [16] was 24.4%, the viability, T/C [17] was 18.2% and the viability, T/C [18] was 16%. For the same compound, the viability, T/C [19] was 17.9%, the viability, T/C [20] was 27.1% and the viability, T/C [21] was 25.6%. The viability, T/C [22] was 22.4%, the viability, T/C [23] was 18.7% and the viability, T/C [24] was 13.9%. For the same compound, the viability, T/C [25] was 19.7%, the viability, T/C [26] was 22.3% and the viability, T/C [27] was 25.1%. The viability, T/C [28] was 23.3%, the viability, T/C [29] was 12.7% and the viability, T/C [30] was 7.93%. The viability, T/C [31] was 19.2%, the viability, T/C [32] was 24.1% and the viability, T/C [33] was 24.4%. It also gave a viability, T/C [34] of 21.3%, a viability, T/C [35] of 0.12% and a viability, T/C [36] of 0.11%.

`Cc1[nH]c2ccccc2c1CCNCc1ccc(/C=C/C(=O)NO)cc1` + Cc1cnc(CNC(=O)c2c(=O)c3ccc(N4CCCN(C)CC4)nc3n3c2sc2ccccc23)cn1 gave an IC50 (second compound 0.0316 µM) of under 0.999 nM, an IC50 (second compound 0.1 µM) of under 0.999 nM and an IC50 (second compound 0.316 µM) of under 0.999 nM. For the same compound, the IC50 (second compound 1 µM) was under 0.999 nM, the IC50 (second compound 3.16 µM) was under 0.999 nM and the IC50 (second compound 10 µM) was under 0.999 nM. For the same compound, the viability, T/C (second compound 0.0316 µM, first compound 0.000999 µM) was 49.7%, the viability, T/C (second compound 0.0316 µM, first compound 0.00316 µM) was 28.9% and the viability, T/C (second compound 0.0316 µM, first compound 0.00999 µM) was 20.8%. It also gave a viability, T/C [1] of 12.3%, a viability, T/C (second compound 0.0316 µM, first compound 0.0999 µM) of 6.33% and a viability, T/C [3] of 8.17%. It also gave a viability, T/C (second compound 0.1 µM, first compound 0.000999 µM) of 32.3%, a viability, T/C (second compound 0.1 µM, first compound 0.00316 µM) of 22.8% and a viability, T/C (second compound 0.1 µM, first compound 0.00999 µM) of 24.6%. It also gave a viability, T/C [7] of 12.8%, a viability, T/C (second compound 0.1 µM, first compound 0.0999 µM) of 6.63% and a viability, T/C [9] of 8.31%. It also gave a viability, T/C (second compound 0.316 µM, first compound 0.000999 µM) of 26.1%, a viability, T/C (second compound 0.316 µM, first compound 0.00316 µM) of 24.2% and a viability, T/C (second compound 0.316 µM, first compound 0.00999 µM) of 18.9%. For the same compound, the viability, T/C [13] was 13.2%, the viability, T/C (second compound 0.316 µM, first compound 0.0999 µM) was 9.48% and the viability, T/C [15] was 8.5%. For the same compound, the viability, T/C (second compound 1 µM, first compound 0.000999 µM) was 21.1%, the viability, T/C (second compound 1 µM, first compound 0.00316 µM) was 20.9% and the viability, T/C (second compound 1 µM, first compound 0.00999 µM) was 18.7%. It also gave a viability, T/C [19] of 11.1%, a viability, T/C (second compound 1 µM, first compound 0.0999 µM) of 8.25% and a viability, T/C [21] of 8.1%. For the same compound, the viability, T/C (second compound 3.16 µM, first compound 0.000999 µM) was 20.2%, the viability, T/C (second compound 3.16 µM, first compound 0.00316 µM) was 23.3% and the viability, T/C (second compound 3.16 µM, first compound 0.00999 µM) was 21.2%. It also gave a viability, T/C [25] of 12.3%, a viability, T/C (second compound 3.16 µM, first compound 0.0999 µM) of 10.4% and a viability, T/C [27] of 5.1%. The viability, T/C (second compound 10 µM, first compound 0.000999 µM) was 22.6%, the viability, T/C (second compound 10 µM, first compound 0.00316 µM) was 24.1% and the viability, T/C (second compound 10 µM, first compound 0.00999 µM) was 20.1%. It also gave a viability, T/C [31] of 11.8%, a viability, T/C (second compound 10 µM, first compound 0.0999 µM) of 12.2% and a viability, T/C [33] of 0.15%.

`O=C(NO)c1cnc(N2CCN(S(=O)(=O)c3ccc4ccccc4c3)CC2)nc1` + Cc1cnc(CNC(=O)c2c(=O)c3ccc(N4CCCN(C)CC4)nc3n3c2sc2ccccc23)cn1 gave an IC50 (second compound 0.0316 µM) of under 31.6 nM, an IC50 (second compound 0.1 µM) of under 31.6 nM and an IC50 (second compound 0.316 µM) of under 31.6 nM. For the same compound, the IC50 (second compound 1 µM) was under 31.6 nM, the IC50 (second compound 3.16 µM) was under 31.6 nM and the IC50 (second compound 10 µM) was under 31.6 nM. It also gave a viability, T/C [1] of 29.4%, a viability, T/C [2] of 20.2% and a viability, T/C [3] of 6.22%. The viability, T/C [4] was 5.24%, the viability, T/C [5] was 0.21% and the viability, T/C [6] was 0.09%. The viability, T/C [7] was 24.2%, the viability, T/C [8] was 17.7% and the viability, T/C [9] was 6.24%. The viability, T/C [10] was 5.27%, the viability, T/C [11] was 0.47% and the viability, T/C [12] was 0.08%. It also gave a viability, T/C [13] of 20%, a viability, T/C [14] of 15.8% and a viability, T/C [15] of 6.06%. The viability, T/C [16] was 4.96%, the viability, T/C [17] was 0.17% and the viability, T/C [18] was 0.07%. The viability, T/C [19] was 21.5%, the viability, T/C [20] was 16.8% and the viability, T/C [21] was 6.11%. For the same compound, the viability, T/C [22] was 6.97%, the viability, T/C [23] was 0.05% and the viability, T/C [24] was 0.07%. For the same compound, the viability, T/C [25] was 16.3%, the viability, T/C [26] was 17.7% and the viability, T/C [27] was 9.78%. It also gave a viability, T/C [28] of 3.81%, a viability, T/C [29] of 0.06% and a viability, T/C [30] of 0.08%. The viability, T/C [31] was 21.6%, the viability, T/C [32] was 16.5% and the viability, T/C [33] was 10.8%. It also gave a viability, T/C [34] of 0.08%, a viability, T/C [35] of 0.09% and a viability, T/C [36] of 0.11%.
